ChEMBL document CHEMBL4184323, “Structure-Guided Design, Synthesis, and Characterization of Next-Generation Meprin β Inhibitors” (J Med Chem, 2018)

Key:
MMP9 = MMP9 (Homo sapiens, UniProt P14780); assay: Inhibition of human MMP9 assessed as residual activity using Mca-PLGL-(DapDnp)-AR-NH2 as substrate at 200 uM by fluorescence assay relative to control; conditions: human MMP9 enzyme, probe Mca-PLGL-(DapDnp)-AR-NH2, read-out: Activity
Meprin A subunit beta = target: T1, Meprin A subunit beta (Homo sapiens, UniProt Q16820)
T1 sequence (Q16820 whole entry): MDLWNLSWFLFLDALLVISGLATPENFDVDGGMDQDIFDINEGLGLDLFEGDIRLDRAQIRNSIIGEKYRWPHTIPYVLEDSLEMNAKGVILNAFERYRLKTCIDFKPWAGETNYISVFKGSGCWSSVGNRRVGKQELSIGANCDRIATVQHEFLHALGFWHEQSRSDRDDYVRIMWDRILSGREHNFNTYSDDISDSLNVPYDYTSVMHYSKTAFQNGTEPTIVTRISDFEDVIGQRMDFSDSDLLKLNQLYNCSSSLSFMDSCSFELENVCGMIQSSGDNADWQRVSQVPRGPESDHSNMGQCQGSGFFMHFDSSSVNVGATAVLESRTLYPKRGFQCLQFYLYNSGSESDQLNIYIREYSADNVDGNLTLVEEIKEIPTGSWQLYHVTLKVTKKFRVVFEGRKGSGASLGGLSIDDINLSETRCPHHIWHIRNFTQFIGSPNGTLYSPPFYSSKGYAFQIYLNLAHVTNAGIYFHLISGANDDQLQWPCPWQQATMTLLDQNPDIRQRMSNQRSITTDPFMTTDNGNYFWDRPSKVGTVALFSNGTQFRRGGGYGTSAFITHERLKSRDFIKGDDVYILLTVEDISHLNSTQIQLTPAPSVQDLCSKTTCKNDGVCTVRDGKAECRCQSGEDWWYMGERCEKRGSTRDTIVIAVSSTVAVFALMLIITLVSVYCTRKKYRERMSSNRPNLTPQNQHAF
Description: Inhibition of recombinant human meprin beta expressed in yeast using Abz-YVAEAPK(Dnp)G-OH as substrate by fluorescence assay

HepG2 [1] = assay: Cytotoxicity in human HepG2 cells assessed as cell viability at 100 uM after 24 hrs by CytoTox-ONE-based assay relative to control; format: functional; conditions: HepG2, 24 h, read-out: Activity
SH-SY5Y [2] = assay: Cytotoxicity in human SH-SY5Y cells assessed as cell viability at 100 uM after 24 hrs by CytoTox-ONE-based assay relative to control; format: functional; conditions: read-out: Activity
MMP13 = MMP13 (Homo sapiens, UniProt P45452); assay: Inhibition of human MMP13 assessed as residual activity using Mca-PLGL-(DapDnp)-AR-NH2 as substrate at 200 uM by fluorescence assay relative to control; conditions: human MMP13 enzyme, probe Mca-PLGL-(DapDnp)-AR-NH2, read-out: Activity
ADAM10 = target: T2, ADAM10 (Homo sapiens, UniProt O14672); assay: Inhibition of human ADAM10 assessed as residual activity using Abz-LANAVRSSSR-(DapDnp)-AR-NH2 as substrate at 200 uM by fluorescence assay relative to control; conditions: human ADAM10 enzyme, probe Abz-LANAVRSSSR-(DapDnp)-AR-NH2, read-out: Activity
T2 sequence (O14672 whole entry): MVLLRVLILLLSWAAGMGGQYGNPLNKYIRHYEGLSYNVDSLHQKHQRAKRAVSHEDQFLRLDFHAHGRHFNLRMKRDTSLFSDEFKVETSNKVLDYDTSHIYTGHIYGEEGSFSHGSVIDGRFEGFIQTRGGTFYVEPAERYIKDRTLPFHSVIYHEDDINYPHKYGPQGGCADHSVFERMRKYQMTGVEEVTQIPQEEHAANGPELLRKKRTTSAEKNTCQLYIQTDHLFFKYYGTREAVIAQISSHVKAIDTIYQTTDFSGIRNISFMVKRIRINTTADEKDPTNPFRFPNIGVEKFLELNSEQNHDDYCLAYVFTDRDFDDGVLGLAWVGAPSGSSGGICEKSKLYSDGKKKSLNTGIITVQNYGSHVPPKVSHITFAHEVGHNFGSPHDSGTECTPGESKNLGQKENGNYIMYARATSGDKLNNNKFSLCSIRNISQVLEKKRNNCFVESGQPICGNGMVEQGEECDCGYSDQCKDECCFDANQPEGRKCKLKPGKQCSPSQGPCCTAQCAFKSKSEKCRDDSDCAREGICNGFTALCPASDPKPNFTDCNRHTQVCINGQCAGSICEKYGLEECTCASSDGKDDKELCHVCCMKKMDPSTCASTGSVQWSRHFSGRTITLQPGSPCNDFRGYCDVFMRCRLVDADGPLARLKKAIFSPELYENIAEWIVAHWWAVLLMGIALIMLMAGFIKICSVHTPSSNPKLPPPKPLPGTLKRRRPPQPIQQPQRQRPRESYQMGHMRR

Homo sapiens = species on record: Homo sapiens; assay: Selectivity ratio of IC50 for recombinant human meprin alpha expressed in insect cells to IC50 for recombinant human meprin beta expressed in yeast
ADAM17 = ADAM17 (Homo sapiens, UniProt P78536); assay: Inhibition of human ADAM17 assessed as residual activity using Abz-LANAVRSSSR-(DapDnp)-AR-NH2 as substrate at 200 uM by fluorescence assay relative to control; conditions: human ADAM17 enzyme, probe Abz-LANAVRSSSR-(DapDnp)-AR-NH2, read-out: Activity
CYP3A4 = CYP3A4 (Homo sapiens, UniProt P08684); assay: Inhibition of recombinant human CYP3A4 expressed in baculosomes assessed as residual activity at 25 uM using BOMCC substrate by fluorescence assay relative to control; format: ADME; conditions: probe BOMCC, read-out: Activity
CYP2C9 = CYP2C9 (Homo sapiens, UniProt P11712); assay: Inhibition of recombinant human CYP2C9 expressed in baculosomes assessed as residual activity at 25 uM using BOMCC substrate by fluorescence assay relative to control; format: ADME; conditions: probe BOMCC, read-out: Activity
MMP2 = MMP2 (Homo sapiens, UniProt P08253); assay: Inhibition of human MMP2 assessed as residual activity using Mca-PLGL-(DapDnp)-AR-NH2 as substrate at 200 uM by fluorescence assay relative to control; conditions: human MMP2 enzyme, probe Mca-PLGL-(DapDnp)-AR-NH2, read-out: Activity
BMP1 = target: T3, BMP1 (Homo sapiens, UniProt P13497); assay: Inhibition of human BMP1 expressed in Escherichia coli assessed as residual activity using Abz-YVADAPK(Dnp)G-OH as substrate at 200 uM by fluorescence assay relative to control; conditions: probe Abz-YVADAPK(Dnp)G-OH, read-out: Activity
T3 sequence (P13497 whole entry): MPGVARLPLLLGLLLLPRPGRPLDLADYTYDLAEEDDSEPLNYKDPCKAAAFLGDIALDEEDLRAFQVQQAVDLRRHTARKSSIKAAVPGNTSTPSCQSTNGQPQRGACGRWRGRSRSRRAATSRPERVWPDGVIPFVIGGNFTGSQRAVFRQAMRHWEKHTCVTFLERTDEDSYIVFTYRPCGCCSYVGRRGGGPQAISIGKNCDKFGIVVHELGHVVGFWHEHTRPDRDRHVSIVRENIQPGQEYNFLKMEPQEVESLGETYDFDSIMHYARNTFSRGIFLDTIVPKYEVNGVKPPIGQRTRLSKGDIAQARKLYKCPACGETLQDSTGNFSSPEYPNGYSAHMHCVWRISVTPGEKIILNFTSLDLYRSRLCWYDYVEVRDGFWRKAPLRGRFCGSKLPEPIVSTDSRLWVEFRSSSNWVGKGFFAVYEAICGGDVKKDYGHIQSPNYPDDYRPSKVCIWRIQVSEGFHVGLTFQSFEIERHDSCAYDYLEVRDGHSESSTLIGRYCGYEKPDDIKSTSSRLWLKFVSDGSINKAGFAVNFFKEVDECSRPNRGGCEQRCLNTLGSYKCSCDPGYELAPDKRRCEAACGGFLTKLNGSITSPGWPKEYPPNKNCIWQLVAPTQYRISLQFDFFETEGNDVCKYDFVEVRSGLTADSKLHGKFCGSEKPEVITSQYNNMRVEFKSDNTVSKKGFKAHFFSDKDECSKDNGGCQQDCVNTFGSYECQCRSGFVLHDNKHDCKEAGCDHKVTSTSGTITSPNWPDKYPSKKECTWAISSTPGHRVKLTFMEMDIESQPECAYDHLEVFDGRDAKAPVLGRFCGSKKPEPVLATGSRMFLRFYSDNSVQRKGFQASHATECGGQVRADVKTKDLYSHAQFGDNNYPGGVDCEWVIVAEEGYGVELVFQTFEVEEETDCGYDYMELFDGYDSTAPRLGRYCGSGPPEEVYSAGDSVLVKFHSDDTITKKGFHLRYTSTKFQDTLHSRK

Rattus norvegicus = assay: Volume of distribution in Sprague-Dawley rat at 10 mg/kg, po by LC-MS analysis; format: ADME, organism-based; conditions: in vivo
HepG2 [3] = assay: Cytotoxicity in human HepG2 cells assessed as cell viability at 30 uM after 24 hrs by CytoTox-ONE-based assay relative to control; format: functional; conditions: HepG2, 24 h, read-out: Activity
SH-SY5Y [4] = assay: Cytotoxicity in human SH-SY5Y cells assessed as cell viability at 30 uM after 24 hrs by CytoTox-ONE-based assay relative to control; format: functional; conditions: read-out: Activity
[5] = Clearance in Sprague-Dawley rat at 6 mg/kg, iv by LC-MS analysis; format: ADME, organism-based; conditions: in vivo
[6] = Half life in Sprague-Dawley rat at 6 mg/kg, iv by LC-MS analysis; format: ADME, organism-based; conditions: in vivo
[7] = Tmax in Sprague-Dawley rat at 10 mg/kg, po by LC-MS analysis; format: ADME, organism-based; conditions: in vivo
[8] = Volume of distribution at steady state in Sprague-Dawley rat at 6 mg/kg, iv by LC-MS analysis; format: ADME, organism-based; conditions: in vivo, read-out: Vdss
[9] = Drug absorption in Sprague-Dawley rat at 10 mg/kg, po by LC-MS analysis; format: ADME, organism-based; conditions: in vivo, read-out: Fabs
[10] = Cmax in Sprague-Dawley rat at 10 mg/kg, po by LC-MS analysis; format: ADME, organism-based; set-up: dose 10 mg/kg, route oral; conditions: in vivo
[11] = Drug absorption in Sprague-Dawley rat at 10 mg/kg, ip by LC-MS analysis; format: ADME, organism-based; conditions: in vivo, read-out: Fabs
[12] = Tmax in Sprague-Dawley rat at 10 mg/kg, ip by LC-MS analysis; format: ADME, organism-based; conditions: in vivo
[13] = Cmax in Sprague-Dawley rat at 10 mg/kg, ip by LC-MS analysis; format: ADME, organism-based; set-up: dose 10 mg/kg, route intraperitoneal; conditions: in vivo

Chain of MMP2 (P08253 whole entry): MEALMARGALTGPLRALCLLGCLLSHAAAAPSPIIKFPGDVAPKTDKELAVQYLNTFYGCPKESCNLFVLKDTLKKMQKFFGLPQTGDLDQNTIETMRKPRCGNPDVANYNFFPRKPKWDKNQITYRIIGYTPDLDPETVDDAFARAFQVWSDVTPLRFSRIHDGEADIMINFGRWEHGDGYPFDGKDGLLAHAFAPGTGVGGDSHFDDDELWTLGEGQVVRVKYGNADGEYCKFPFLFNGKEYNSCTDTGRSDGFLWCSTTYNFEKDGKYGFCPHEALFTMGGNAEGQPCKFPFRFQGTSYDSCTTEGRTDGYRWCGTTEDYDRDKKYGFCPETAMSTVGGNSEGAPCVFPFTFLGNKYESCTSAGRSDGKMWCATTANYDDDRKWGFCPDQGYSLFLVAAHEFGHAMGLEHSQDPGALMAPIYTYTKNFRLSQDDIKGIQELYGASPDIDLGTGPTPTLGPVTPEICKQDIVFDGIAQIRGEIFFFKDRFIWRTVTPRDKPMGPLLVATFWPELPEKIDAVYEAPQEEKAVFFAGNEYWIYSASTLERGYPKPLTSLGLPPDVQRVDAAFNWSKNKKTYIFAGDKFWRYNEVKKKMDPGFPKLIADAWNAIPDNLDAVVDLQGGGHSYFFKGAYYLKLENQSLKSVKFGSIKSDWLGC
Chain of ADAM17 (P78536 whole entry): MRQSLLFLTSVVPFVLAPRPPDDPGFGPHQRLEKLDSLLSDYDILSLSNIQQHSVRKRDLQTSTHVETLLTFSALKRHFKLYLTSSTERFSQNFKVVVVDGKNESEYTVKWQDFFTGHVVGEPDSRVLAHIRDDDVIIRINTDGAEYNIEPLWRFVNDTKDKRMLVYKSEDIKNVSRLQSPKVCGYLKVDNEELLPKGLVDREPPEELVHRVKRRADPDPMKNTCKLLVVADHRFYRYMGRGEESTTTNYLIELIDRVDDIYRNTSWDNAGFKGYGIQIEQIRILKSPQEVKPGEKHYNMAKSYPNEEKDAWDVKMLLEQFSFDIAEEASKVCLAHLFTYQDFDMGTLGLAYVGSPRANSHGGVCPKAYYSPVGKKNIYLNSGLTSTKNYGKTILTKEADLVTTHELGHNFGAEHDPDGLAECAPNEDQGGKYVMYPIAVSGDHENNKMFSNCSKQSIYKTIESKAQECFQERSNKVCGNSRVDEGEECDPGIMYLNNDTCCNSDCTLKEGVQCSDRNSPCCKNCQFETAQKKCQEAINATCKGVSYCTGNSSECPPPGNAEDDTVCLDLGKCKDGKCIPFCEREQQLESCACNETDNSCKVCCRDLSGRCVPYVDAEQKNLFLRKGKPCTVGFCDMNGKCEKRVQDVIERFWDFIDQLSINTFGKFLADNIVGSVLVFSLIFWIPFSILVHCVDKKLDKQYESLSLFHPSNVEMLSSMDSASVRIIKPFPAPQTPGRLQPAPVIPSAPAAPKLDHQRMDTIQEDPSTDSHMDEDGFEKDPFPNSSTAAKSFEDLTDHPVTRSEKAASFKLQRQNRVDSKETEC
Chain of MMP9 (P14780 whole entry): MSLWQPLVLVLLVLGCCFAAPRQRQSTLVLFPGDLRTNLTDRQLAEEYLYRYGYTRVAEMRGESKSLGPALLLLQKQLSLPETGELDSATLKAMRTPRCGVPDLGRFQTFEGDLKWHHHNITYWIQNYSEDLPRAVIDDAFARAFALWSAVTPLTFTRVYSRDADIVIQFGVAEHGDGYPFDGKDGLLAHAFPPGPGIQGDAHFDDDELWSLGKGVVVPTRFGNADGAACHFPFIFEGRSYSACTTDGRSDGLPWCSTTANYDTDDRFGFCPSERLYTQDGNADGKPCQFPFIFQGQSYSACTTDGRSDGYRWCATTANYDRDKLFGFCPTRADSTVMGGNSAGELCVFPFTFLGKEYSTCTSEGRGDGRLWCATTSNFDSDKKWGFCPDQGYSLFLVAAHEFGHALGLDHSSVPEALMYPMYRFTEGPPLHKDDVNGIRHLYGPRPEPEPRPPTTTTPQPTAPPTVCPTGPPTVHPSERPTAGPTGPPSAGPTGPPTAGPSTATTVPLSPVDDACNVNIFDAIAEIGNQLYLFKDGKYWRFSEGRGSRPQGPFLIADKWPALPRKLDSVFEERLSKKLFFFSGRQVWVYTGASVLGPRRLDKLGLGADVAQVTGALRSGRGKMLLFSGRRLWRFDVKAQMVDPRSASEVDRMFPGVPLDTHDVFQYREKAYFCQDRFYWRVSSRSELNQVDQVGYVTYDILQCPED
Chain of CYP2C9 (P11712 whole entry): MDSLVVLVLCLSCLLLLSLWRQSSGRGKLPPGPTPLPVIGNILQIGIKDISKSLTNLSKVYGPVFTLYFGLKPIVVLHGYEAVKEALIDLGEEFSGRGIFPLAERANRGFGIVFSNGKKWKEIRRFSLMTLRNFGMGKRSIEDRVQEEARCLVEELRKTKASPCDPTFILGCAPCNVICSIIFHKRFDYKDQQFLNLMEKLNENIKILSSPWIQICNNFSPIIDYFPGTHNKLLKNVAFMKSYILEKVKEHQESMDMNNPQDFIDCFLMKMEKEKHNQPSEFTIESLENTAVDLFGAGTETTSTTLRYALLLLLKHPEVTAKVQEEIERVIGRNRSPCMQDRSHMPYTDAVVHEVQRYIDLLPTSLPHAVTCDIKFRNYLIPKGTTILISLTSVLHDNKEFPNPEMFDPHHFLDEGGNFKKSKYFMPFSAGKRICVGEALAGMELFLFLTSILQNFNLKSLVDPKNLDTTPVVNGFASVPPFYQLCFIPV
Chain of CYP3A4 (P08684 whole entry): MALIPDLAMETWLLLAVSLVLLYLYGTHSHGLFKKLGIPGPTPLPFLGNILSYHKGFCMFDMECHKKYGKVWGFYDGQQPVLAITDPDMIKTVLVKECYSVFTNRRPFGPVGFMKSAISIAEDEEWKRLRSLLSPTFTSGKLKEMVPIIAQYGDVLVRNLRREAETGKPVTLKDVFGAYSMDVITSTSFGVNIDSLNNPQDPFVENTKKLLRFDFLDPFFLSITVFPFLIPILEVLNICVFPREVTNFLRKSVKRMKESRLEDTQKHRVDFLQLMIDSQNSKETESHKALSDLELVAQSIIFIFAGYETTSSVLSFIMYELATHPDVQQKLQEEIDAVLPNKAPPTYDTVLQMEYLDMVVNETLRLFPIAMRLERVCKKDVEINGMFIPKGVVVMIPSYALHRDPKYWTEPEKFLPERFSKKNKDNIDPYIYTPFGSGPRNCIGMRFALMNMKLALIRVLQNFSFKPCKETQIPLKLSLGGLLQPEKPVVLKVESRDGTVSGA

COc1ccc(CN(CC(=O)NO)Cc2cccc(C(=O)O)c2)cc1
activity at 200 µM (MMP9): 85%
IC50 (Meprin A subunit beta): 0.077 µM
viability at 100 µM (HepG2 [1]): 100%
viability at 100 µM (SH-SY5Y [2]): 87%
activity at 200 µM (MMP13): 94%
activity at 200 µM (ADAM10): 87%
Ratio IC50 (Homo sapiens): 40
activity at 200 µM (ADAM17): 60%
activity at 25 µM (CYP3A4): 80%
activity at 25 µM (CYP2C9): 102%
activity at 200 µM (MMP2): 68%

CCCOc1cccc(CN(CC(=O)NO)Cc2cccc(C(=O)O)c2)c1
IC50 (Meprin A subunit beta): 2.25 µM

O=C(CN(Cc1ccc(-c2ccccc2)cc1)Cc1cccc(C(=O)O)c1)NO
IC50 (Meprin A subunit beta): 1.28 µM

O=C(CN(Cc1ccc(F)c(O)c1F)Cc1ccc(F)c(O)c1F)NO
activity at 200 µM (MMP9): 94%
activity at 200 µM (BMP1): 34%
Vd (Rattus norvegicus): 0.045 L
viability at 30 µM (HepG2 [3]): 99%
viability at 30 µM (SH-SY5Y [4]): 92%
activity at 200 µM (MMP13): 102%
activity at 200 µM (ADAM10): 99%
clearance [5]: 1.31 L/h/kg
half-life [6]: 66 min
Tmax [7]: 7.8 min
activity at 200 µM (ADAM17): 92%
Vd [8]: 0.41 L/kg
Fa [9]: 5%
activity at 25 µM (CYP3A4): 87%
activity at 25 µM (CYP2C9): 101%
Cmax [10]: 1.08 µg/mL
activity at 200 µM (MMP2): 67%

COc1ccc(S(=O)(=O)N(CC(=O)NO)Cc2cccc(C(=O)O)c2)cc1
activity at 200 µM (MMP9): 2%
activity at 200 µM (MMP13): < 1%
activity at 200 µM (ADAM10): < 1%
activity at 200 µM (ADAM17): < 1%
activity at 200 µM (MMP2): < 1%

O=C(CN(Cc1ccc(Cl)c(O)c1F)Cc1ccc(Cl)c(O)c1F)NO
activity at 200 µM (MMP9): 81%
activity at 200 µM (BMP1): 50%
Vd (Rattus norvegicus): 0.058 L
viability at 30 µM (HepG2 [3]): 101%
viability at 30 µM (SH-SY5Y [4]): 93%
activity at 200 µM (MMP13): 93%
Fa [11]: 84%
Tmax [12]: 10.2 min
activity at 200 µM (ADAM10): 97%
clearance [5]: 1.26 L/h/kg
half-life [6]: 114 min
Tmax [7]: 15 min
activity at 200 µM (ADAM17): 82%
Vd [8]: 0.33 L/kg
Cmax [13]: 10.9 µg/mL
Fa [9]: 9%
activity at 25 µM (CYP3A4): 76%
activity at 25 µM (CYP2C9): 68%
Cmax [10]: 0.81 µg/mL
activity at 200 µM (MMP2): 41%

COc1cc(F)c(CN(CC(=O)NO)Cc2cccc(C(=O)O)c2)c(F)c1
IC50 (Meprin A subunit beta): 0.347 µM

O=C(CN(Cc1ccc(C(=O)O)cc1)Cc1ccc(C(=O)O)cc1)NO
IC50 (Meprin A subunit beta): 0.524 µM

COc1c(Cl)ccc(CN(CC(=O)NO)Cc2ccc(Cl)c(OC)c2F)c1F
IC50 (Meprin A subunit beta): 12.8 µM

COc1ccc(CN(CC(=O)NO)Cc2cccc(C(=O)O)c2)cc1F
IC50 (Meprin A subunit beta): 0.375 µM

Cc1ccc(CN(CC(=O)NO)Cc2cccc(C(=O)O)c2)cc1
IC50 (Meprin A subunit beta): 0.386 µM

O=C(CN(Cc1ccc(Cl)cc1)Cc1cccc(C(=O)O)c1)NO
activity at 200 µM (MMP9): 88%
viability at 30 µM (HepG2 [3]): 104%
viability at 30 µM (SH-SY5Y [4]): 97%
activity at 200 µM (MMP13): 78%
activity at 200 µM (ADAM10): 95%
activity at 200 µM (ADAM17): 57%
activity at 25 µM (CYP3A4): 79%
activity at 25 µM (CYP2C9): 77%
activity at 200 µM (MMP2): 69%
